Source: patent publication US20180045675A1, “SINGLE-CELL INTRACELLULAR NANO-PH PROBES” (The Regents of the University of California, priority 2015, published 2018)

System: MDA-MB-231 cells
Test: real-time intracellular pH measurement with nano-pH probe during chloride channel blocker exposure
Type: cell-based, human
Details: single MDA-MB-231 cells
From the text: Sensing setup. To carry out analytical characterization experiments of chitosan-modified nanopipette sensors, a two-electrode setup connected to a potentiostat (1030C, CH Instruments Inc.) was used for sensing. A 125 μm platinum wire (Goodfellow Corporation) placed into nanopipettes filled with electrolyte served as the working electrode while a pseudo Ag/AgCl electrode placed in bulk solution (PBS or cell media) served as the reference electrode. Linear sweep voltammetry was utilized for all in vitro measurements with a scan rate of 0.1 V/sec.
Intracellular measurements were performed by combining the potentiostat and scanning ion conductance microscope (SICM) with a low-noise mechanical switch. The SICM setup consisted of an Axopatch 200B amplifier (Molecular Devices) for current feedback measurements, a MP-285 motorized micromanipulator (Sutter Instrument) for coarse positioning of the nano-pH probe, a piezo stage (NanoCube, Physik Instrumente) for fine positioning and insertion of the nano-pH probe sensors, and a programmable interface for hardware control of the setup. This system is run by custom software written in LabVIEW (National Instruments). All experiments with cells were conducted on an inverted fluorescence microscope (Olympus IX 70) equipped with an eyepiece camera (Dino-Eye, Big C).
Cell culture. […]
Chitosan-modified nanopipettes were inserted to individual cells using a customized scanning ion conductance microscope which detects current feedback for positioning the nanopipettes. […] After the insertion of the nano-pH probe into a cell, linear sweep voltammograms were recorded and the current-responses at a bias potential of 0.6 V were used to calculate the intracellular pH levels of single cells.
The present nano-pH probe can be used to monitor intracellular pH changes during drug therapy. […] Conventionally, the change in pH has been measured indirectly by introduction of fluorescent dye (BCECF-AM)^47,48. […] The measured pH levels stabilized by 4 min post NPPB introduction. […]

O=C(O)c1cc([N+](=O)[O-])ccc1NCCCc1ccccc1 [NPPB, 5-nitro-2-(3-phenylpropylamino)-benzoate]
time by which measured pH levels stabilized post NPPB introduction (100 μM NPPB): ≤ 4 min
time within which intracellular pH level dropped significantly after introduction of NPPB (100 μM NPPB): ≤ 2 min
lowest intracellular pH level after introduction of NPPB (100 μM NPPB in cell media, readings every 21 sec for 7 min, baseline around 7): 2.5
